Values after ≈ are worked out from the molar mass of the structure shown. Active and inactive are the calls of the source. The calls are words filed in the database; no cut-off is given here.
Columns and labels:
[1] = Agonist activity at GPR119 receptor in hamster HIT-T15 cells assessed as intracellular cAMP level; assay type: cell-based; details: Cricetinae
HIT-T15 = assay: Agonist activity at GPR119 receptor in hamster HIT-T15 cells assessed as intracellular cAMP level relative to AR-231,453; assay type: cell-based; details: Cricetinae
[2] = Clearance in mouse liver microsomes; assay type: ADME, Microsome; details: read-out: CLH
hERG (KCNH2) = hERG (KCNH2) (Homo sapiens, UniProt Q12809); assay: Inhibition of human ERG channel
Chain of hERG (KCNH2) (Q12809 whole entry): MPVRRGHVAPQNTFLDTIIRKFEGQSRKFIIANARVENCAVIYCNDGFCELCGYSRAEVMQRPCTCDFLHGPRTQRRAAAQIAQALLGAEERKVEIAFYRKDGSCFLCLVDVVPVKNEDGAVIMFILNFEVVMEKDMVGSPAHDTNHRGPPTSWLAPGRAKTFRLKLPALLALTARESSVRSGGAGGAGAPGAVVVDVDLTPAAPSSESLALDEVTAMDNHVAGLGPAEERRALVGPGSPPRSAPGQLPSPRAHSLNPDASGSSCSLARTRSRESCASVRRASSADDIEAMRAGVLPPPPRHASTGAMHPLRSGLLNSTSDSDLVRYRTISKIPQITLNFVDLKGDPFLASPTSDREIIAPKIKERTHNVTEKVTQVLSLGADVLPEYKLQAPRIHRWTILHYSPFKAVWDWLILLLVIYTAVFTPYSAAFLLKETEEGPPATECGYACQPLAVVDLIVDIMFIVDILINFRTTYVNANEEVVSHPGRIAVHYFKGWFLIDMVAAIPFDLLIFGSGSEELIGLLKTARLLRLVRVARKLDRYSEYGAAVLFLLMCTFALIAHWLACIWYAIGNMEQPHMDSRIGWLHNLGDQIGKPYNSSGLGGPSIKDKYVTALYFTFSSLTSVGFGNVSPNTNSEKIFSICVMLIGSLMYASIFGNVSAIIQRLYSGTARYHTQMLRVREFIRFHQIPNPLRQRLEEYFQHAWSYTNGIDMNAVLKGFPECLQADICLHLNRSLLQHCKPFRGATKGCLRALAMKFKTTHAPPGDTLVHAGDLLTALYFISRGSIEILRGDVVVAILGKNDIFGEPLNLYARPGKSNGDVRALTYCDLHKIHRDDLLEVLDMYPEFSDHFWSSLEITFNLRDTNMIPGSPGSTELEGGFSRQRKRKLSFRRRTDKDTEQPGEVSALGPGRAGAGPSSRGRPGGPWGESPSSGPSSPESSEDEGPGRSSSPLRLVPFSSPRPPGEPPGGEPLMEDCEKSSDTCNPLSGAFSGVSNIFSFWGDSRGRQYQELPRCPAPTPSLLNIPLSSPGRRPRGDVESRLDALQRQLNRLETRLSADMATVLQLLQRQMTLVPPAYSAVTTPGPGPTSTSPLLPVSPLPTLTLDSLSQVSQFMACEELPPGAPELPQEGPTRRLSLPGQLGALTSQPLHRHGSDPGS

[3] = Kinetic solubility of the compound at pH 6.5; assay type: physicochemical; details: buffer, read-out: Kinetic_solubility
Cytochrome P450 3A4 = Cytochrome P450 3A4 (Homo sapiens, UniProt P08684); assay: Inhibition of CYP3A4 (unknown origin); assay type: ADME
Chain of Cytochrome P450 3A4 (P08684 whole entry): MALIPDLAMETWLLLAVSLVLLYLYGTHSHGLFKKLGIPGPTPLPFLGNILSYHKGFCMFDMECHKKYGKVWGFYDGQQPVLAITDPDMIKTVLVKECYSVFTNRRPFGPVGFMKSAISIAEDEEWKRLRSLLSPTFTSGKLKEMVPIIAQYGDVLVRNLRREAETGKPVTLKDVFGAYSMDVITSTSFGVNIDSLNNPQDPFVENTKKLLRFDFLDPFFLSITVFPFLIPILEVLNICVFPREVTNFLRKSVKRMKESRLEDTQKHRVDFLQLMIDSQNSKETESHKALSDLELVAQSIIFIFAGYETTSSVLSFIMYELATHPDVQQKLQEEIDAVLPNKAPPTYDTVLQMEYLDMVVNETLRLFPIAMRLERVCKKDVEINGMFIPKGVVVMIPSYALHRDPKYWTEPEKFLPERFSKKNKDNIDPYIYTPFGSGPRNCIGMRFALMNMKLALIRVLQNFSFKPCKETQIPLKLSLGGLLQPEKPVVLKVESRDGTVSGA

Cytochrome P450 2C9 = Cytochrome P450 2C9 (Homo sapiens, UniProt P11712); assay: Inhibition of CYP2C9 (unknown origin); assay type: ADME
Chain of Cytochrome P450 2C9 (P11712 whole entry): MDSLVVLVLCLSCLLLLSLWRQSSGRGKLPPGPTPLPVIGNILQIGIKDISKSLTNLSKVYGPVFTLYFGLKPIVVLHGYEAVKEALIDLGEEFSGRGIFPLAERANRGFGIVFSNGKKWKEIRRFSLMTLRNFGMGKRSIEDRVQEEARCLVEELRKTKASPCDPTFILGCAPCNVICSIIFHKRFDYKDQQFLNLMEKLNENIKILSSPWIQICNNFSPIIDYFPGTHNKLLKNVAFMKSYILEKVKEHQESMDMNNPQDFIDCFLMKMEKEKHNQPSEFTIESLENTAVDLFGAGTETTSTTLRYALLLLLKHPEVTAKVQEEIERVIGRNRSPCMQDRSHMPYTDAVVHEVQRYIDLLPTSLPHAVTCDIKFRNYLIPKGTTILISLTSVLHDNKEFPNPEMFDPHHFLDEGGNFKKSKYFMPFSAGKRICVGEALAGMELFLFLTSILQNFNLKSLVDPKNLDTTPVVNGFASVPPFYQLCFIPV

Hepatocyte = assay: Metabolic stability of the compound in mouse hepatocytes assessed as glutathione adduct formation; assay type: ADME, cell-based
Mus musculus = assay: Antihyperglycemic activity in C57Bl/6J mouse assessed as reduction of AUC (0 to 120 mins) of glucose excursion at 30 mg/kg, po administered 2 hrs before glucose challenge; assay type: functional; parameters: scale not given: the % may be the effect or the level left
[4] = Tmax in mouse at 10 mg/kg, po; assay type: ADME, organism-based; parameters: dose 10 mg/kg, route oral; details: in vivo
[5] = Cmax in mouse at 10 mg/kg, po; assay type: ADME, organism-based; parameters: dose 10 mg/kg, route oral; details: in vivo
[6] = Half life in mouse at 5 mg/kg, iv; assay type: ADME, organism-based; parameters: dose 5 mg/kg, route intravenous; details: in vivo
[7] = Volume of distribution in mouse at 5 mg/kg, iv; assay type: ADME, organism-based; parameters: dose 5 mg/kg, route intravenous; details: in vivo
[8] = AUC in mouse at 5 mg/kg, iv; assay type: ADME, organism-based; parameters: dose 5 mg/kg, route intravenous; details: plasma
[9] = AUC in mouse at 10 mg/kg, po; assay type: ADME, organism-based; parameters: dose 10 mg/kg, route oral; details: plasma
[10] = Oral bioavailability in mouse at 10 mg/kg; assay type: ADME, organism-based; details: in vivo
[11] = Clearance in mouse at 5 mg/kg, iv; assay type: ADME, organism-based; parameters: dose 5 mg/kg, route intravenous; details: in vivo

CS(=O)(=O)c1ccc(Nc2ncnc3c2cnn3C2CCN(Cc3ccccc3)CC2)cc1
EC50 [1]: 19000 nM | Emax (HIT-T15): 64%

CS(=O)(=O)c1ccc(Oc2ncnc3c2cnn3C2CCN(Cc3ccc(C(F)(F)F)cc3)CC2)cc1
microsomal CLint [2]: 114 µL/min/mg | IC20 (hERG (KCNH2)): 200 nM | solubility kinetic [3]: < 1 µg/mL | IC50 (Cytochrome P450 3A4): 1800 nM | EC50 [1]: 36 nM | IC50 (Cytochrome P450 2C9): > 6000 nM | Emax (HIT-T15): 59%

CC(C)(C)OC(=O)N1CCC(n2ncc3c(Oc4ccc(C(F)(F)F)cc4)ncnc32)CC1
EC50 [1]: > 25000 nM | Emax (HIT-T15): 27%

CC(C)(C)CC(=O)N1CCC(n2ncc3c(Oc4ccc(S(C)(=O)=O)cc4)ncnc32)CC1
EC50 [1]: 270 nM | Emax (HIT-T15): 58%

CC(C)(C)OC(=O)N1CCC(n2ncc3c(Oc4ccccc4F)ncnc32)CC1
EC50 [1]: 190 nM | Emax (HIT-T15): 107%

CS(=O)(=O)c1ccc(Oc2ncnc3c2cnn3C2CCN(Cc3ccc(Cl)cc3)CC2)cc1
EC50 [1]: 570 nM | Emax (HIT-T15): 73%

CC(C)(C)COC(=O)N1CCC(n2ncc3c(Oc4ccc(S(C)(=O)=O)cc4)ncnc32)CC1
EC50 [1]: 100 nM | Emax (HIT-T15): 93%

CC(C)(C)OC(=O)N1CCC(n2ncc3c(Nc4ccc(S(C)(=O)=O)cc4F)ncnc32)CC1
microsomal CLint [2]: 70 µL/min/mg | IC20 (hERG (KCNH2)): 2600 nM | solubility kinetic [3]: 8 µg/mL (≈ 16.3 µM) | EC50 [1]: 240 nM | IC50 (Cytochrome P450 2C9): 900 nM | Emax (HIT-T15): 103%

CC(C)(C)OC(=O)N1CCC(n2ncc3c(Oc4cc(F)c(F)cc4F)ncnc32)CC1
EC50 [1]: 88 nM | Emax (HIT-T15): 95%

COc1cc(OC)cc(Oc2ncnc3c2cnn3C2CCN(C(=O)OC(C)(C)C)CC2)c1
EC50 [1]: 6400 nM | Emax (HIT-T15): 34%

CS(=O)(=O)c1ccc(Oc2ncnc3c2cnn3C2CCN(Cc3cccc(Cl)c3)CC2)cc1
EC50 [1]: 280 nM | Emax (HIT-T15): 83%

CS(=O)(=O)c1ccc(Oc2ncnc3c2cnn3C2CCN(Cc3ccc(F)cc3)CC2)cc1
EC50 [1]: 200 nM | Emax (HIT-T15): 69%

CC(C)(C)OC(=O)N1CCC(n2ncc3c(Oc4cccc(C(C)(C)C)c4)ncnc32)CC1
EC50 [1]: > 25000 nM | Emax (HIT-T15): 27%

CC(C)OC(=O)N1CCC(n2ncc3c(Nc4ccc(S(C)(=O)=O)cc4)ncnc32)CC1
EC50 [1]: 5740 nM | Emax (HIT-T15): 92%

CS(=O)(=O)c1ccc(Oc2ncnc3c2cnn3C2CCN(C(=O)CCc3ccccc3)CC2)cc1
EC50 [1]: 1000 nM | Emax (HIT-T15): 94%

CC(=O)c1ccc(Oc2ncnc3c2cnn3C2CCN(C(=O)OC(C)(C)C)CC2)cc1
EC50 [1]: 160 nM | Emax (HIT-T15): 83%

CC(C)(C)OC(=O)N1CCC(n2ncc3c(Oc4ccccc4C#N)ncnc32)CC1
EC50 [1]: 61 nM

CC(C)OC(=O)N1CCC(n2ncc3c(Oc4ccc(S(C)(=O)=O)cc4)ncnc32)CC1
Stability (Hepatocyte): Unstable | microsomal CLint [2]: 85 µL/min/mg | Activity (Mus musculus): 44% | IC20 (hERG (KCNH2)): 500 nM | solubility kinetic [3]: < 1 µg/mL | Tmax [4]: 4 h | Cmax [5]: 13.2 µM | IC50 (Cytochrome P450 3A4): > 6000 nM | half-life [6]: 1.6 h | Vd [7]: 0.46 L/kg | AUC [8]: 25300 ng·h/mL | EC50 [1]: 150 nM | AUC [9]: 41300 ng·h/mL | bioavailability [10]: 82% | clearance [11]: 3.3 mL/min/kg | IC50 (Cytochrome P450 2C9): > 6000 nM | Emax (HIT-T15): 92%

CC(C)COC(=O)N1CCC(n2ncc3c(Oc4ccc(S(C)(=O)=O)cc4)ncnc32)CC1
EC50 [1]: 110 nM | Emax (HIT-T15): 84%

CC(C)C(=O)N1CCC(n2ncc3c(Oc4ccc(S(C)(=O)=O)cc4)ncnc32)CC1
EC50 [1]: 990 nM | Emax (HIT-T15): 60%

CC(C)(C)OC(=O)N1CCC(n2ncc3c(Oc4ccc(C#N)cc4)ncnc32)CC1
EC50 [1]: 580 nM | Emax (HIT-T15): 87%

CC(C)(C)OC(=O)N1CCC(n2ncc3c(Nc4ccc(S(C)(=O)=O)cc4)ncnc32)CC1
EC50 [1]: 1400 nM | Emax (HIT-T15): 105%

CC(C)(C)OC(=O)N1CCC(n2ncc3c(Nc4cc(F)c(F)cc4F)ncnc32)CC1
EC50 [1]: 530 nM | Emax (HIT-T15): 97%

CCOC(=O)N1CCC(n2ncc3c(Oc4ccc(S(C)(=O)=O)cc4)ncnc32)CC1
EC50 [1]: 650 nM | Emax (HIT-T15): 81%

CS(=O)(=O)c1ccc(Oc2ncnc3c2cnn3C2CCN(Cc3cccc(OC(F)(F)F)c3)CC2)cc1
EC50 [1]: 120 nM | Emax (HIT-T15): 54%

CC(C)CC(=O)N1CCC(n2ncc3c(Oc4ccc(S(C)(=O)=O)cc4)ncnc32)CC1
microsomal CLint [2]: 29 µL/min/mg | IC20 (hERG (KCNH2)): 2700 nM | solubility kinetic [3]: 32 µg/mL (≈ 69.9 µM) | IC50 (Cytochrome P450 3A4): > 25000 nM | EC50 [1]: 330 nM | IC50 (Cytochrome P450 2C9): > 25000 nM | Emax (HIT-T15): 59%

CC(C)(C)OC(=O)N1CCC(n2ncc3c(Oc4ccc(C(C)(C)C)cc4)ncnc32)CC1
EC50 [1]: > 25000 nM | Emax (HIT-T15): 13%

CS(=O)(=O)c1ccc(Oc2ncnc3c2cnn3C2CCN(C(=O)OCC(Cl)(Cl)Cl)CC2)cc1
EC50 [1]: 18 nM | Emax (HIT-T15): 90%

CC(C)(C)OC(=O)N1CCC(n2ncc3c(Oc4ccc(S(C)(=O)=O)cc4)ncnc32)CC1
microsomal CLint [2]: 86 µL/min/mg | Activity (Mus musculus): inactive | IC20 (hERG (KCNH2)): 2700 nM | solubility kinetic [3]: < 1 µg/mL | IC50 (Cytochrome P450 3A4): 3100 nM | EC50 [1]: 43 nM | IC50 (Cytochrome P450 2C9): > 3000 nM | Emax (HIT-T15): 101%

CC(C)(C)OC(=O)N1CCC(n2ncc3c(Oc4ccc(F)cc4)ncnc32)CC1
EC50 [1]: 540 nM | Emax (HIT-T15): 82%

CS(=O)(=O)c1ccc(Oc2ncnc3c2cnn3C2CCN(Cc3ccccc3)CC2)cc1
EC50 [1]: 580 nM | Emax (HIT-T15): 87%

CC(C)(C)OC(=O)N1CCC(n2ncc3c(Oc4ccccc4)ncnc32)CC1
EC50 [1]: > 25000 nM | Emax (HIT-T15): 30%

— ChEMBL document CHEMBL3112399, “Discovery of pyrazolo[3,4-d]pyrimidine derivatives as GPR119 agonists” (Bioorg Med Chem Lett, 2014)
